Test results reported in US8551537B2, “Rhus verniciflua stokes extract having increased content of active flavonoid compound and method for preparing same” (AZI Company Ltd., priority 2010, dated 2013).

Experiment: Anti-oxidative activity, electron-donating ability by DPPH method
Type: biochemical
Procedure: A measurement of anti-oxidative activity was performed by using a method of measuring an electron-donating ability with DPPH method. DPPH is an abbreviation for 1,1-diphenyl-2-picrylhydrazyl, and is widely used a marker for measuring anti-oxidative activity due to its radical. The testing processes were as follows: (1) 2 ml of 0.1 mM DPPH (Sigma, D-9132) dissolved in ethanol was treated to 2 ml of sample dissolved in ethanol; (2) it was mixed for 10 minutes, and then maintained at a dark place for 30 minutes; (3) an absorbance was measured at 520 nm; and (4) the degree of anti-oxidative ability (electron-donating ability, EDA) was calculated. Vitamin E (Fluka, 95420) was used as a positive control group and Formula was as follow.
In the above formula, Cabs denotes an absorbance of a negative control group (in the case of treating only ethanol instead of sample) and Sabs denotes an absorbance of sample.

[1] = Table 1, comparison experiment between fustin and fisetin
[2] = Table 4, DPPH method, absorbance at 520 nm

## O=C1c2ccc(O)cc2O[C@H](c2ccc(O)c(O)c2)[C@H]1O [Fustin, 2,3-Dihydrofisetin]
[1]
  Anti-oxidative Activity (IC50, ug/ml): 33 µg/mL
[2]
  Anti-oxidative Activity (IC50, ug/ml): 32 µg/mL

## O=c1c(O)c(-c2ccc(O)c(O)c2)oc2cc(O)ccc12 [Fisetin, 2-(3,4-dihydroxyphenyl)-3,7-dihydroxy-4H-chromen-4-one-hydrate]
[1]
  Anti-oxidative Activity (IC50, ug/ml): 8 µg/mL
[2]
  Anti-oxidative Activity (IC50, ug/ml): 7.8 µg/mL
Ratio versus fustin
  antioxidative activity of fisetin as compared with that of fustin: at least 5 times
